Results: patent US8741330B2, “Transluminal drug delivery methods and devices” (priority 2006, dated 2014)
Where a name gives a salt, the structure may show the parent alone.

Key:
[1] = PDR 1997 p. 564; cited from earlier work
[2] = Blood pressure / hemodynamic monitoring after urethral suppository (Example 1); conditions: rabbit, urethral suppository approx. 100 mg lidocaine
[3] = 5 and 10 ml of water

## CCN(CC)CC(=O)Nc1c(C)cccc1C [lidocaine hydrochloride]
[1]
  maximum recommended adult dose: 4.5 mg/kg

## CCN(CC)CC(=O)Nc1c(C)cccc1C [lidocaine]
[2]
  hemodynamic changes: No significant hemodynamic changes
[3]
  effect of fluid volume on pH of lidocaine/sodium bicarbonate: does not appear to have a major effect
